Results reported in patent US9597407B2, “Targeted antimicrobial moieties” (C3 Jian, Inc., priority 2009, dated 2017).
“Also recorded” adds a separate entry of the source. Ends that are not written are not given here.

Legend:
microorganisms [1] = test: Peptide activities: binding, antimicrobial, growth or phenotype altering (Table 8)
Excerpt: In certain embodiments, peptides described herein can have multiple activities. Thus for example, a peptide can have both binding/targeting activity and antimicrobial activity. Such peptides can be used, e.g., in a chimeric construct, for any or all of these properties. Thus, for example, a peptide designated “B” in Table 8 can be used as a targeting peptide. If it is also designated G or M it can also be used for antimicrobial activity.

microorganisms [2] = test: Morphology, biofilm and growth disruption by peptides (Table 5); assay type: cell-based; parameters: key: A: Peptide aggregates; B: Less hyphal formation; Clumps; Diffuse clumps and small polyps; F: Diffuse growth; H: Thin; I: Growth inhibition; Microcolony formation; Rippled; Small polyps; Thick; W: Halo formation on top, microlonies on bottom
Excerpt: In certain embodiments peptides that induce alterations in phenotype or other biological activities can also be used as antimicrobial effector moieties.

bacteria = test: Binding of targeting peptides to microorganisms (Table 3); settings: preferably 1x PBS; for Target(s) (microorganism bound by the targeting peptide) / Target(s) (microorganisms bound by the targeting peptide): peptide binding in aqueous buffers that varied depending on peptide solubility; for Target(s): microorganism bound by the targeting peptide, binding in aqueous buffers chosen by peptide solubility

## PF-478 (HLFILKSHLKPFPPFRYTYD; Peptide with targeting and/or antimicrobial activity)
Microorganisms [1]
  Activities: G B
Microorganisms [2]; E. coli
  Organism, effect (morphology, biofilm and growth disruption): E. coli (C)
Microorganisms [2]; MRSA
  Organism, effect (morphology, biofilm and growth disruption): MRSA (H)
Microorganisms [2]; S. epidermidis
  Organism, effect (morphology, biofilm and growth disruption): S. epidermidis (C)
Microorganisms [2]; S. pneumoniae
  Organism, effect (morphology, biofilm and growth disruption): S. pneumoniae (C)

## PF-375 (MDSAKAQTMRTDWLAVSCLVASAYLRSMLA; Peptide with targeting and/or antimicrobial activity)
Microorganisms [1]
  Activities: G B
Microorganisms [2]; E. coli
  Organism, effect: E. coli (C)
Microorganisms [2]; E. faecalis
  Organism, effect: E. faecalis (C)
Microorganisms [2]; MRSA
  Organism, effect: MRSA (C)
Microorganisms [2]; S. epidermidis
  Organism, effect: S. epidermidis (C)

## PF-460 (MEHVLPFQNTPPNIVIIYKDFTHLKSITFS; Peptide with targeting and/or antimicrobial activity)
Microorganisms [1]
  Activities: G B
Microorganisms [2]; E. coli
  Organism, effect (morphology, biofilm and growth disruption): E. coli (H)
Microorganisms [2]; E. faecalis
  Organism, effect (morphology, biofilm and growth disruption): E. faecalis (C)
Microorganisms [2]; MRSA
  Organism, effect (morphology, biofilm and growth disruption): MRSA (C)
Microorganisms [2]; S. epidermidis
  Organism, effect (morphology, biofilm and growth disruption): S. epidermidis (C)
Microorganisms [2]; S. pneumoniae
  Organism, effect (morphology, biofilm and growth disruption): S. pneumoniae (R)

## PF-056 (AEQLFGKQKQRGVDLFLNRLTIILSILFFVLMICISYLGM; Peptide with targeting and/or antimicrobial activity)
Microorganisms [1]
  Activities: G B
Microorganisms [2]; B. subtilis
  Organism, effect: B. subtilis (C)
Microorganisms [2]; C. albicans
  Organism, effect: C. albicans (B)
Microorganisms [2]; C. jeikeium
  Organism, effect: C. jeikeium (S)
Microorganisms [2]; C. jejuni
  Organism, effect: C. jejuni (D)
Microorganisms [2]; M. luteus
  Organism, effect: M. luteus (D)
Microorganisms [2]; MRSA
  Organism, effect: MRSA (M)
Microorganisms [2]; S. epidermidis
  Organism, effect: S. epidermidis (D)
Microorganisms [2]; S. pneumoniae
  Organism, effect: S. pneumoniae (D)

## PF-465 (KPVGKALEEIADGKIEPVVPKEYLG; Peptide with targeting and/or antimicrobial activity)
Microorganisms [1]
  Activities: G B
Microorganisms [2]; S. pneumoniae
  Organism, effect (morphology, biofilm and growth disruption): S. pneumoniae (H)

## PF-482 (LVGYVRTSGTVRSYKIN; Peptide with targeting and/or antimicrobial activity)
Microorganisms [1]
  Activities: G B
Microorganisms [2]; S. pneumoniae
  Organism, effect (morphology, biofilm and growth disruption): S. pneumoniae (S)

## PF-603 (IDKLKKMNLQKLSYEVRISQDGKSIYARIK; Peptide with targeting and/or antimicrobial activity)
Microorganisms [1]
  Activities: G B
Microorganisms [2]; E. coli
  Organism, effect (morphology, biofilm and growth disruption): E. coli (M)
Microorganisms [2]; M. luteus
  Organism, effect (morphology, biofilm and growth disruption): M. luteus (A)
Microorganisms [2]; MRSA
  Organism, effect (morphology, biofilm and growth disruption): MRSA (M)
Microorganisms [2]; S. epidermidis
  Organism, effect (morphology, biofilm and growth disruption): S. epidermidis (D)
Microorganisms [2]; S. pneumoniae
  Organism, effect (morphology, biofilm and growth disruption): S. pneumoniae (C)

## PF-619 (chain 1 WSRVPGHSDTGWKVWHRW; chain 2 WSRVPGHSDTGWKVWHRW; Peptide with targeting and/or antimicrobial activity)
Microorganisms [1]
  Activities: G B
Microorganisms [2]; E. coli
  Organism, effect (morphology, biofilm and growth disruption): E. coli (C)
Microorganisms [2]; MRSA
  Organism, effect (morphology, biofilm and growth disruption): MRSA (M)
Microorganisms [2]; S. epidermidis
  Organism, effect (morphology, biofilm and growth disruption): S. epidermidis (M)
Microorganisms [2]; S. pneumoniae
  Organism, effect (morphology, biofilm and growth disruption): S. pneumoniae (C)

## PF-380 (KKIIPLITLFVVTLVG; Peptide with targeting and/or antimicrobial activity)
Microorganisms [1]
  Activities: G B
Microorganisms [2]; C. jejuni
  Organism, effect: C. jejuni (D)
Microorganisms [2]; E. coli
  Organism, effect: E. coli (C)
Microorganisms [2]; E. faecalis
  Organism, effect: E. faecalis (C)
Microorganisms [2]; MRSA
  Organism, effect: MRSA (D)
Microorganisms [2]; P. aeruginosa
  Organism, effect: P. aeruginosa (A)
Microorganisms [2]; S. epidermidis
  Organism, effect: S. epidermidis (C)
Microorganisms [2]; S. pneumoniae
  Organism, effect: S. pneumoniae (D)

## PF-479 (AYILKRREEKNK; Peptide with targeting and/or antimicrobial activity)
Microorganisms [1]
  Activities: G B
Microorganisms [2]; S. pneumoniae
  Organism, effect (morphology, biofilm and growth disruption): S. pneumoniae (C)

## PF-776 (VSILLYLSATIILPNVLRLLVARAIIVRV; Peptide with targeting and/or antimicrobial activity)
Microorganisms [2]; E. coli
  Organism, effect (morphology, biofilm and growth disruption): E. coli (C)
Microorganisms [2]; M. luteus
  Organism, effect (morphology, biofilm and growth disruption): M. luteus (C)
Microorganisms [2]; MRSA
  Organism, effect (morphology, biofilm and growth disruption): MRSA (D)
Microorganisms [2]; S. epidermidis
  Organism, effect (morphology, biofilm and growth disruption): S. epidermidis (D)
Microorganisms [2]; S. mutans
  Organism, effect (morphology, biofilm and growth disruption): S. mutans (D)
Microorganisms [2]; S. pneumoniae
  Organism, effect (morphology, biofilm and growth disruption): S. pneumoniae (C)
bacteria
  Target(s) (microorganism bound by the targeting peptide): S. epidermidis and M. luteus and P. mirabilis and C. albicans and MRSA and S. pneumoniae and E. faecalis

## PF-271 (AAQPQTTSP; Peptide with targeting and/or antimicrobial activity)
Microorganisms [2]; M. luteus
  Organism, effect: M. luteus (T)
bacteria
  Target(s): S. epidermidis; also recorded: M. luteus; also recorded: P. aeruginosa; also recorded: A. baumannii

## PF-144 (RSGQPVGRPSRRAWLR; Peptide with targeting and/or antimicrobial activity)
Microorganisms [2]; S. pneumoniae
  Organism, effect: S. pneumoniae (H)
bacteria
  Target(s): S. epidermidis and M. luteus and E. coli and C. albicans and MRSA and S. pneumoniae and E. faecalis and C. jeikeium

## PF-186 (DADKNLSLERDRFAWRVAAP; Peptide with targeting and/or antimicrobial activity)
Microorganisms [2]; C. jeikeium
  Organism, effect: C. jeikeium (A)
Microorganisms [2]; S. epidermidis
  Organism, effect: S. epidermidis (C)
bacteria
  Target(s): S. epidermidis and M. luteus and E. coli and P. aeruginosa and MRSA and C. jeikeium

## PF-414 (LLNKKLE; Peptide with targeting and/or antimicrobial activity)
Microorganisms [2]; S. pneumoniae
  Organism, effect: S. pneumoniae (H)
bacteria
  Target(s) (microorganisms bound by the targeting peptide): E. coli; also recorded: C. albicans; also recorded: C. jeikeium

## PF-698 (chain 1 SSGRAGVKCRRPTGR; chain 2 SSGRAGVKCRRPTGR; Peptide with targeting and/or antimicrobial activity)
Microorganisms [2]; C. albicans
  Organism, effect (morphology, biofilm and growth disruption): C. albicans (H)
Microorganisms [2]; E. faecalis
  Organism, effect (morphology, biofilm and growth disruption): E. faecalis (A)
Microorganisms [2]; S. pneumoniae
  Organism, effect (morphology, biofilm and growth disruption): S. pneumoniae (A)
bacteria
  Target(s) (microorganism bound by the targeting peptide): Mycobacteria spp

## PF-135 (PPARPARIPQTPTLHGASLFRQRS; Peptide with targeting and/or antimicrobial activity)
Microorganisms [2]; C. jeikeium
  Organism, effect: C. jeikeium (R)
bacteria
  Target(s): S. epidermidis and M. luteus and E. coli and P. aeruginosa and MRSA and C. jeikeium and M. smegmatis

## LSEMERRRLRKRA-NH2 [PF-529]
Microorganisms [2]; S. pneumoniae
  Organism, effect (morphology, biofilm and growth disruption): S. pneumoniae (H)
bacteria
  Target(s) (microorganisms bound by the targeting peptide): S. epidermidis and E. coli and C. albicans and MRSA and S. pneumoniae and E. faecalis and C. jeikeium

## PF-C064 (DEEALEMGANLYAQFAIDFLNSKK; Peptide with targeting and/or antimicrobial activity)
Microorganisms [2]; F. nucleatum
  Organism, effect (morphology, biofilm and growth disruption): F. nucleatum (T)
bacteria
  Target(s) (microorganism bound by the targeting peptide): A. naeslundii; also recorded: F. nucleatum; also recorded: P. gingivalis; also recorded: S. mutans; also recorded: T. denticola

## PF-173 (AGRTAIVQGGG; Peptide with targeting and/or antimicrobial activity)
Microorganisms [2]; C. jeikeium
  Organism, effect: C. jeikeium (D)
Microorganisms [2]; S. epidermidis
  Organism, effect: S. epidermidis (A)
bacteria
  Target(s): S. epidermidis; also recorded: M. luteus; also recorded: P. mirabilis; also recorded: E. coli; also recorded: P. aeruginosa; also recorded: C. albicans; also recorded: C. jeikeium; also recorded: C. jejuni

## PF-164 (EEVSRALAGIGLGLGCRIG; Peptide with targeting and/or antimicrobial activity)
Microorganisms [2]; C. jeikeium
  Organism, effect: C. jeikeium (R)
bacteria
  Target(s): S. epidermidis; also recorded: M. luteus; also recorded: E. coli; also recorded: C. jeikeium
